Patent US20260053794A1, “SOMATOSTATIN RECEPTOR 2 AGONISTS AND USES THEREOF” (Exelixis, Inc., priority 2022, published 2026)

Target: T1, Somatostatin Receptor 2 (SSTR2) (Homo sapiens, UniProt P30874)
T1 construct: expressed in transfected cells
Test: Biochemical Assay for Activation of Somatostatin Receptor 2 (SSTR2), Cisbio HTRF cAMP assay
Assay type: cell-based
Conditions: average pEC50; HTRF cAMP assay in stably-transfected cell line expressing SSTR2; cells incubated with compounds for 1-2h
Experimental: Biochemical Assay for Activation of Somatostatin Receptor 2 (SSTR2)
Agonistic activation of SSTRs leads to an […] production of intracellular cAMP levels. Cisbio's homogeneous time-resolved fluorescence (HTRF) cAMP assay was used to measure cAMP concentration in an high-throughput format. Increase in intracellular cAMP concentrations was measuring using a stably-transfected cell line expressing SSTR2. Test compounds were dissolved in DMSO. Cells were incubated with compounds for 1-2h, and subsequently competitive binding of cAMP produced due to the activation of SSTR2 by the test compounds was measured using the Cisbio cAMP Gs dynamic assay system (Perkin Elmer, Bedford, MA).
The average pEC50 was determined for the test compounds.

T1 sequence (P30874 whole entry, species assumed): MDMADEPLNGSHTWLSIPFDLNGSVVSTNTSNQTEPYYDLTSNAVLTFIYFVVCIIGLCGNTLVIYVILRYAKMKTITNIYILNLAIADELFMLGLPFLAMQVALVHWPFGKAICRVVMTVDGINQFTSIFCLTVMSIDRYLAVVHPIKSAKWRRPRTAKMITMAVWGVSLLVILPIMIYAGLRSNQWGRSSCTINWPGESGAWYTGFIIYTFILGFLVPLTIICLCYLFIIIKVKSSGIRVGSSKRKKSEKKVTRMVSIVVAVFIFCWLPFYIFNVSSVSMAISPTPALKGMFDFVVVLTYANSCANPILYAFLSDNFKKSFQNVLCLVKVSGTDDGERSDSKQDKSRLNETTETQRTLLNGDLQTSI

Structure (SMILES) | EC50
Cc1cc(F)cc(-c2cnc3ccc4cc3c2N2CCC(CC2)NCC(CO)CCOc2c(C#N)cccc2-4)c1 (single isomer, unassigned) [Compound 90] | 15.8 nM
Cc1cc(F)cc(-c2cnc3ccc4cc3c2N2CCC(CC2)NCC[C@@H](N)COc2c(C#N)cccc2-4)c1 (single isomer, unassigned) [Compound 98] | 316 nM
Cc1cc(F)cc(-c2cnc3ccc4cc3c2N2CCC(CC2)NC[C@@H](O)CCOc2c(C#N)cccc2-4)c1 (single isomer, unassigned) [Compound 100] | 2510 nM
Cc1cc(F)cc(-c2cnc3ccc4cc3c2N2CCC(CC2)NC[C@H](O)CCOc2c(C#N)cccc2-4)c1 (single isomer, unassigned) [Compound 101] | 1580 nM
Cc1cc(F)cc(-c2cnc3ccc4cc3c2N2CCC(CC2)NCC[C@@H](O)COc2c(C#N)cccc2-4)c1 (single isomer, unassigned) [Compound 102] | 398 nM
Cc1cc(F)cc(-c2cnc3ccc4cc3c2N2CCC(CC2)NCC[C@H](O)COc2c(C#N)cccc2-4)c1 (single isomer, unassigned) [Compound 103] | 3980 nM
COc1cc(F)cc(-c2cnc3ccc(-c4ccc5[nH]c(=O)[nH]c5c4)cc3c2O[C@@H]2CC[C@H](N)C2)c1 [Compound 6] | 63.1 nM
COc1cc(F)cc(-c2cnc3ccc(-c4cccc(C#N)c4O)cc3c2O[C@@H]2CC[C@H](N)C2)c1 [Compound 7] | 20 nM
NC(=O)c1cc(F)cc(-c2ccc3ncc(-c4cc(F)cc(F)c4)c(O[C@@H]4CC[C@H](N)C4)c3c2)c1 [Compound 10] | 10 nM
N[C@H]1CC[C@@H](Oc2c(-c3cc(F)cc(F)c3)cnc3ccc(-c4ccc5[nH]c(=O)[nH]c5c4)cc23)C1 [Compound 11] | 398 nM
N[C@@H]1CC[C@H](Oc2c(-c3cc(F)cc(F)c3)cnc3ccc(-c4cc(F)cc(F)c4)cc23)C1 [Compound 12, (1R,3S)-3-((3,6-bis(3,5-difluorophenyl)quinolin-4-yl)oxy) cyclopentanamine] | 15.8 nM

Stronger by EC50, values ahead:

EC50 | Structure (SMILES)
7.94 nM | Cc1cc(F)cc(-c2cnc3ccc4cc3c2N2CCC(CC2)NCC[C@H](N)COc2c(C#N)cccc2-4)c1 (single isomer, unassigned) [Compound 99]
7.94 nM | Cc1cc(F)cc(-c2cnc3ccc(-c4cc(F)cc(C(N)=O)c4)cc3c2O[C@H]2CC[C@@H](N)C2)c1 [Compound 3]
6.31 nM | Cc1cc(F)cc(-c2cnc3ccc4cc3c2N2CCC(CC2)NC[C@H](CO)CCOc2c(C#N)cccc2-4)c1 (single isomer, unassigned) [Compound 91]
6.31 nM | Cc1cc(F)cc(-c2cnc3ccc(-c4ccc5[nH]c(=O)[nH]c5c4)cc3c2O[C@@H]2CC[C@H](N)C2)c1 [Compound 8]
3.16 nM | COc1cc(F)cc(-c2cnc3ccc(-c4cc(F)cc(C(N)=O)c4)cc3c2O[C@@H]2CC[C@H](N)C2)c1 [Compound 5]
3.16 nM | Cc1cc(F)cc(-c2cnc3ccc(-c4cccc(C#N)c4O)cc3c2O[C@@H]2CC[C@H](N)C2)c1 [Compound 9]
2.51 nM | Cc1cc(F)cc(-c2cnc3ccc4cc3c2N2CCC(CC2)NCC[C@H](N=[N+]=[N-])COc2c(C#N)cccc2-4)c1 (single isomer, unassigned) [Compound 97]
1 nM | Cc1cc(F)cc(-c2cnc3ccc(-c4cc(F)cc(C(N)=O)c4)cc3c2O[C@@H]2CC[C@H](N)C2)c1 [Compound 2]
0.794 nM | Cc1cc(F)cc(-c2cnc3ccc4cc3c2N2CCC(CC2)NCC[C@@H](N=[N+]=[N-])COc2c(C#N)cccc2-4)c1 (single isomer, unassigned) [Compound 96]
0.398 nM | Cc1cc(F)cc(-c2cnc3ccc(-c4cc(F)cc(C(N)=O)c4)cc3c2O[C@@H]2CC[C@@H](N)C2)c1 [Compound 4]
0.316 nM | Cc1cc(F)cc(-c2cnc3ccc(-c4cc(F)cc(C(N)=O)c4)cc3c2O[C@H]2CC[C@H](N)C2)c1 [Compound 1, 3-(4-(((1S,3S)-3-aminocyclopentyl)oxy)-3-(3-fluoro-5-methylphenyl)quinolin-6-yl)-5-fluorobenzamide]
